Experimental data: ChEMBL document CHEMBL1201862, “PubChem BioAssay data set” (2004)
Activity calls are given as the source filed them.

Columns and labels:
[1] = NIH-3T3 fibroblast cytotoxicity, dose response, cytotoxicity control, cell-based, fluorescence, Alamar Blue, secondary assay (AID 2327); assay type: functional;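 note: NIH-3T3 mouse fibroblasts cultured with fluconazole at 8 µg/mL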
[2] = fluconazole-exposed Candida albicans growth modulators – fluorescence, retest, confirmation (AID 2467); assay type: functional, cell-based
[3] = target: T1, Serine/threonine-protein phosphatase (Candida dubliniensis (strain CD36 / CBS 7987 / NCPF 3949 / NRRLY-17841) (Yeast), UniProt B9W6M3); test: blockers of CaCl2-induced CDRE-lacZ signaling – S. cerevisiae, luminescence, secondary, dose response (AID 2388); assay type: functional, cell-based;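 note: yeast reporter cells carrying a calcineurin-responsive lacZ construct stimulated with calcium chloride; luminescent beta-galactosidase reporter signal in whole cells rather than isolated phosphatase activity; potency for inhibition where a drop in reporter signal means calcineurin blockade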
T1 sequence (B9W6M3 whole entry): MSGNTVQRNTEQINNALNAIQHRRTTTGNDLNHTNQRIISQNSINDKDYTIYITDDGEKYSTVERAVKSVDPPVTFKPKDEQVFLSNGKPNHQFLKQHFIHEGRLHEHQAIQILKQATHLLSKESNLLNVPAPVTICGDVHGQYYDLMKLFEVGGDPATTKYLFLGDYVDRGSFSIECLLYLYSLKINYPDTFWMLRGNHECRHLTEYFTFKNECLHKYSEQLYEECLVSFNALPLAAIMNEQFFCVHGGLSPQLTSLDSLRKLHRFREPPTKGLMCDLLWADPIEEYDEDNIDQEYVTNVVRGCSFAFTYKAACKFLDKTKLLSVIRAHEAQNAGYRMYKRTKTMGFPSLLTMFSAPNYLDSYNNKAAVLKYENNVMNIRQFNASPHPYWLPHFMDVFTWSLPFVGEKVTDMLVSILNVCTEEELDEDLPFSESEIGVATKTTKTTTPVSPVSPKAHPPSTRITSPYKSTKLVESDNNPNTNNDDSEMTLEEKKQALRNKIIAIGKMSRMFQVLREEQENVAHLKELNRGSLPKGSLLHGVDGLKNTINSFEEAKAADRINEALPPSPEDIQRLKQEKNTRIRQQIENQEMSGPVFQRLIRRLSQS

[4] = target: ATP-dependent molecular chaperone HSP82 (Candida albicans (strain WO-1) (Yeast), UniProt C4YTQ8); test: steroid-induced GRE reporter decrease in yeast – S. cerevisiae, luminescence, Hsp90 inhibitor project, dose response (AID 2400); assay type: functional, cell-based;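 note: beta-galactosidase luminescence from glucocorticoid response element reporter as proxy for Hsp90 function; inhibitor potency where signal loss means Hsp90 inhibition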
Sequence of ATP-dependent molecular chaperone HSP82 (C4YTQ8 whole entry): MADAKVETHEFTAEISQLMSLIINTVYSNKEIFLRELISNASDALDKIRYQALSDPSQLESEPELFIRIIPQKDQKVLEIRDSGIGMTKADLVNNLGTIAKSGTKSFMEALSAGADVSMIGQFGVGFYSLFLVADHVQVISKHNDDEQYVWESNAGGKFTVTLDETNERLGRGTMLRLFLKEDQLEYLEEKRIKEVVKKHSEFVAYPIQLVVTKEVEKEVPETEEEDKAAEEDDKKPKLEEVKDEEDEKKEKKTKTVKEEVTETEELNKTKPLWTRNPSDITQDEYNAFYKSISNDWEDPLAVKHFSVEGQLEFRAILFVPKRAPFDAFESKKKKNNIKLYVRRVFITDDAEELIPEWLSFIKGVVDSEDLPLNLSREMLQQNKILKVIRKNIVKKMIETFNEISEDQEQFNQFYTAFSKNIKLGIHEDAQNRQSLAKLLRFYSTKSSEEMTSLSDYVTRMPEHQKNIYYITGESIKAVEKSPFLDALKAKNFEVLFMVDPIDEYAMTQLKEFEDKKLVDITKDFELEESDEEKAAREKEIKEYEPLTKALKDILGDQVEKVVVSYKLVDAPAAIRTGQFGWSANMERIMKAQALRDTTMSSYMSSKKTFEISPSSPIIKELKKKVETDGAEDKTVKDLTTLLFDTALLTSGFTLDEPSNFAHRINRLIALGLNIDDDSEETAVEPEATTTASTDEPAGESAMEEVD

[5] = target: 26S proteasome non-ATPase regulatory subunit 14 (Homo sapiens, UniProt O00487); test: inhibition of proteasome subunit RPN11 – biochemical, fluorescence polarization, uHTS hits, confirmation (AID 602368); assay type: functional
Sequence of 26S proteasome non-ATPase regulatory subunit 14 (O00487 whole entry): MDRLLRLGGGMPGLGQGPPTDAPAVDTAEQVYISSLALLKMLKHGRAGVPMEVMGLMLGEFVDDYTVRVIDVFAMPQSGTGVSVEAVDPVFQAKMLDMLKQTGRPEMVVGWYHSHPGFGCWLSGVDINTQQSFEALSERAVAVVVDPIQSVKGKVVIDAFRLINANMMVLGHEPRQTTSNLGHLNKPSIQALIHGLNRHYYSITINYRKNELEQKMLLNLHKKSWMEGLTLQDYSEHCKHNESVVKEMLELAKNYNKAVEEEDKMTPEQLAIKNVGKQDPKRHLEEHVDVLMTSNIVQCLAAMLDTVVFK

[6] = target: 72 kDa type IV collagenase (Homo sapiens, UniProt P08253); test: Dose Response validation of uHTS RPN11 inhibitor hits using a MMP-2 Fluorescence assay.; assay type: functional
Sequence of 72 kDa type IV collagenase (P08253 whole entry): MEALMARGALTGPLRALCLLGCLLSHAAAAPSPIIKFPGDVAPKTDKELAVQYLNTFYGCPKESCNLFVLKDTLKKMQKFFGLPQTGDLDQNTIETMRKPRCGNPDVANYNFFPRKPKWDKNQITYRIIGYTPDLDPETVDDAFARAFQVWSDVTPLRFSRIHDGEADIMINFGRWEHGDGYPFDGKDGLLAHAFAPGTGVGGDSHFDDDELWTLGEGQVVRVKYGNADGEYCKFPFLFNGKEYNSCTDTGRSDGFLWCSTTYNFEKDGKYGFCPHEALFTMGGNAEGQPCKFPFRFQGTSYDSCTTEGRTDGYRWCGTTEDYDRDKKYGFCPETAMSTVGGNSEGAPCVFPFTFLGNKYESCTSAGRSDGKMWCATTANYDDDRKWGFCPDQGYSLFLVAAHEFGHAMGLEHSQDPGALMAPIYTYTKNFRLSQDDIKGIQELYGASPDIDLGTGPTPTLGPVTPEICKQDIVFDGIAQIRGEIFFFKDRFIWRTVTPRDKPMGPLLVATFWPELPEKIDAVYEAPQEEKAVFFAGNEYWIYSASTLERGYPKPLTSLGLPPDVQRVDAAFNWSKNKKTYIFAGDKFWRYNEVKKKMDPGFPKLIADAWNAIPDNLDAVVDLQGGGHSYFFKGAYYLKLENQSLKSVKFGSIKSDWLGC

Prothrombin [7] = target: Prothrombin (Bos taurus, UniProt P00735); test: thrombin protease inhibitors – biochemical, fluorescence polarization, uHTS hits, dose response (AID 602369); assay type: functional
Prothrombin [8] = target: Prothrombin (Homo sapiens, UniProt P00734); test: Thrombin 1536 HTS Dose Response Confirmation. [Related pubchem assays: 1046 (Thrombin 1536 HTS; hits were confirmed in this assay)]; assay type: functional
Coagulation factor XII = target: T2, Coagulation factor XII (Homo sapiens, UniProt P00748); assay type: functional;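 note: activated factor XIIa alpha cleaving a fluorogenic AMC peptide substrate; inhibitor potency from loss of enzyme activity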
T2 sequence (P00748 whole entry): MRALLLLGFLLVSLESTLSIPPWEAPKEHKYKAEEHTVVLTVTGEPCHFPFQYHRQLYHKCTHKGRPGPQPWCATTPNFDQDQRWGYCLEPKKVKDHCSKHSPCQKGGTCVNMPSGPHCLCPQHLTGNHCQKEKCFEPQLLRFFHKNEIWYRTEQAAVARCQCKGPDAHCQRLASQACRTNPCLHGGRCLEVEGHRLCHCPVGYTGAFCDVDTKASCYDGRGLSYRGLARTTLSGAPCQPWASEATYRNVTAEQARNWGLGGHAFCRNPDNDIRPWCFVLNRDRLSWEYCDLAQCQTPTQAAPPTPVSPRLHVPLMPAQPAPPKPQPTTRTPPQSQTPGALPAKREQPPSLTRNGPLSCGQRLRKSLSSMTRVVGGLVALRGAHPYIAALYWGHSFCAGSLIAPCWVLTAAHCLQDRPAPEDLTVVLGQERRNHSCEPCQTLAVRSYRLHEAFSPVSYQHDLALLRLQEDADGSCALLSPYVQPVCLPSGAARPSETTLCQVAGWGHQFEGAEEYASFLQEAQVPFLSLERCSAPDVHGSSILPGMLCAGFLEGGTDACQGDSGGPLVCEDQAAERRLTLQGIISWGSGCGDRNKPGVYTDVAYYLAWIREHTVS

[9] = target: T3, DNA repair and recombination protein RAD54-like (Homo sapiens, UniProt Q92698); test: RAD54 Holliday junction migration blockers – biochemical, fluorescence, cherry-picked samples, dose series, confirmation (AID 651657); assay type: functional
T3 sequence (Q92698 whole entry): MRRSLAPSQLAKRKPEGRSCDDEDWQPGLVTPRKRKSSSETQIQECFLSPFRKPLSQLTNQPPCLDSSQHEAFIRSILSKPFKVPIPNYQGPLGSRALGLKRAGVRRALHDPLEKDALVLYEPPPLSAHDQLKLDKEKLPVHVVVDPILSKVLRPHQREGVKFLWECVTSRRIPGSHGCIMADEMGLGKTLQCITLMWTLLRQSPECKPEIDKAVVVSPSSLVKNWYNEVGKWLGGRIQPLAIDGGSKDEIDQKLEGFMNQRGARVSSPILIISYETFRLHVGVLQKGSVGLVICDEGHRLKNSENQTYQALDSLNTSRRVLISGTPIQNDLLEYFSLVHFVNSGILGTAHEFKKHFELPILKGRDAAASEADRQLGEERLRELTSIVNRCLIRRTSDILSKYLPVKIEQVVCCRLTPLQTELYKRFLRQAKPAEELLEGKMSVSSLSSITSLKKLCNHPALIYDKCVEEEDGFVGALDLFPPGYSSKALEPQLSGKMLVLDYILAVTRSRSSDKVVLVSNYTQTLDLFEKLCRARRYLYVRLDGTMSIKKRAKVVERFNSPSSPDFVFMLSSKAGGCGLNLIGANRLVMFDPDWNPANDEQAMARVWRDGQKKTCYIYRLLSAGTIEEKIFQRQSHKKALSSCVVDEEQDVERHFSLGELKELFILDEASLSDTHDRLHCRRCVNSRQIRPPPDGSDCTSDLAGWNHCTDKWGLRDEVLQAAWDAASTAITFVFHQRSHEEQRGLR

Cytochrome P450 2D6 = Cytochrome P450 2D6 (Homo sapiens, UniProt P10635);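 note: CYP2D6 member of a cytochrome P450 panel assay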
Sequence of Cytochrome P450 2D6 (P10635 whole entry): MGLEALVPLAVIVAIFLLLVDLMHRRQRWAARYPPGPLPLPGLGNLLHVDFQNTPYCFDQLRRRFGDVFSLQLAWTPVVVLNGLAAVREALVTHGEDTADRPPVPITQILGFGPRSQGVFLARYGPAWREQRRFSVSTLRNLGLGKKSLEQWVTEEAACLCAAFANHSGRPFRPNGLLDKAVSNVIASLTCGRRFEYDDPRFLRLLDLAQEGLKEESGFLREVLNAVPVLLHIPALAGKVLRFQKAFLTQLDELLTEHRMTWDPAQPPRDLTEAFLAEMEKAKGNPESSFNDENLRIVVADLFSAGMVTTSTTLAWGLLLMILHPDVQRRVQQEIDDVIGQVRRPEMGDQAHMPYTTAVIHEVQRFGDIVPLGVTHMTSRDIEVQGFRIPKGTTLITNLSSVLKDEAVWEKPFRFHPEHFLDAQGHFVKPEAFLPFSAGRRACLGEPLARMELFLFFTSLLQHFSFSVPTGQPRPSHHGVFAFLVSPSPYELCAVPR

Cytochrome P450 3A4 = Cytochrome P450 3A4 (Homo sapiens, UniProt P08684);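 note: CYP3A4 tested as one member of a cytochrome P450 panel screen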
Sequence of Cytochrome P450 3A4 (P08684 whole entry): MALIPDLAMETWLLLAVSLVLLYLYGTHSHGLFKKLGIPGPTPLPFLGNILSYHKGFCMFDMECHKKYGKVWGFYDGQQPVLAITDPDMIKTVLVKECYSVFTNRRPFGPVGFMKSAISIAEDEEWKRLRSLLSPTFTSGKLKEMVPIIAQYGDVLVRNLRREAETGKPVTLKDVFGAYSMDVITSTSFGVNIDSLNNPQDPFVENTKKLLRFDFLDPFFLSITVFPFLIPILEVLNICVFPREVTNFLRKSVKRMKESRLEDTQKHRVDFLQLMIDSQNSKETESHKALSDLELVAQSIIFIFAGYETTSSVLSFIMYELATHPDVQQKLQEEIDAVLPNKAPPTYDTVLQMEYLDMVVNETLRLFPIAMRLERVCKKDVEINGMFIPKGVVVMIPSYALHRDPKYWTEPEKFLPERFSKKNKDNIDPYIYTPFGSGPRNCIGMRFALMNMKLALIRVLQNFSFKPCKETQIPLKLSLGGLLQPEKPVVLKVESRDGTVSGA

[10] = tested on: Streptococcus sp. 'group A'; test: Streptococcus pyogenes SK(-)GAS viability under kanamycin – luminescence, BacTiterGlo, confirmation, counter-screen for streptokinase expression inhibitor project, dose response (AID 1900); assay type: functional, organism-based
Streptokinase A = target: T4, Streptokinase A (Streptococcus pyogenes serotype M1, UniProt P10520); test: viability-normalized secreted streptokinase activity reduction – plasminogen activation absorbance, OD405, dose response (AID 1914); assay type: functional, Streptococcus pyogenes M1 GAS;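 note: secreted streptokinase activity via plasminogen activation per viability signal from cell pellet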
T4 sequence (P10520 whole entry): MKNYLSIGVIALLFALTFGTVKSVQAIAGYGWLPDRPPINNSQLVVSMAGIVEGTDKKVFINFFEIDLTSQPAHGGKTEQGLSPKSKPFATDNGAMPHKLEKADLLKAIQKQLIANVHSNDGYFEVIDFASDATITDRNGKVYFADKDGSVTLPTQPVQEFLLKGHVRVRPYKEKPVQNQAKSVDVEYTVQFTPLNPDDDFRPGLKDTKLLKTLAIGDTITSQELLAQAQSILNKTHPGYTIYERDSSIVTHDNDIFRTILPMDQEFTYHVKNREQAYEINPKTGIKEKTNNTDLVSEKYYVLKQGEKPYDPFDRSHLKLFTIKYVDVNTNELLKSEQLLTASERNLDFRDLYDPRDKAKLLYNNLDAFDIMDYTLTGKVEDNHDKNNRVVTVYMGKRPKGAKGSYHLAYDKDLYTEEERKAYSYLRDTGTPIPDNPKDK

Streptococcus = test: GAS UMAA2166 growth inhibition – luminescence, BacTiterGlo, counter-screen for streptokinase expression inhibitor project, dose response (AID 1915); assay type: functional, organism-based;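 note: potency for reduction of bacterial viability or growth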
H9c2 = test: cells; assay type: functional, cell-based; conditions: Rattus norvegicus, H9c2, Myocardium
Vero = test: cells; assay type: functional; conditions: Chlorocebus sabaeus
P388/ADR = test: cells; assay type: functional; conditions: Mus musculus
SN12K1 = test: cells; assay type: functional
cells [11] = assay type: functional, cell-based
cells [12] = assay type: functional, cell-based; remark: listed apart in the source
Nonstructural protein 1 = Nonstructural protein 1 (Influenza A virus, UniProt Q194T2); assay type: functional, Influenza A virus (A/California/07/2009(H1N1))
Sequence of Nonstructural protein 1 (Q194T2 whole entry): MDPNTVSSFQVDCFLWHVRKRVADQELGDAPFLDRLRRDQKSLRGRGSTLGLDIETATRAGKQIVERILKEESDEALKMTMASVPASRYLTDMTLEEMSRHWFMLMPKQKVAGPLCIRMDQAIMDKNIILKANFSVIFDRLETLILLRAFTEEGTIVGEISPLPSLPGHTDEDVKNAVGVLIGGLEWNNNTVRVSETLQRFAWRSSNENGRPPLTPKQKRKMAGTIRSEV

HEK293 = test: EBV LMP1 TES2 canonical NF-kB signalling blockers – cell-based, HEK293, luciferase, cherry-pick, dose response (AID 588343); assay type: functional; conditions: Homo sapiens
[13] = target: T5, Rac GTPase-activating protein 1 (Homo sapiens, UniProt Q9H0H5); test: blockers of MgcRacGAP-driven Rac1 GTP hydrolysis – biochemical, ADP Hunter fluorescence, primary and confirmatory, confirmation (AID 624330); assay type: functional
T5 sequence (Q9H0H5 whole entry): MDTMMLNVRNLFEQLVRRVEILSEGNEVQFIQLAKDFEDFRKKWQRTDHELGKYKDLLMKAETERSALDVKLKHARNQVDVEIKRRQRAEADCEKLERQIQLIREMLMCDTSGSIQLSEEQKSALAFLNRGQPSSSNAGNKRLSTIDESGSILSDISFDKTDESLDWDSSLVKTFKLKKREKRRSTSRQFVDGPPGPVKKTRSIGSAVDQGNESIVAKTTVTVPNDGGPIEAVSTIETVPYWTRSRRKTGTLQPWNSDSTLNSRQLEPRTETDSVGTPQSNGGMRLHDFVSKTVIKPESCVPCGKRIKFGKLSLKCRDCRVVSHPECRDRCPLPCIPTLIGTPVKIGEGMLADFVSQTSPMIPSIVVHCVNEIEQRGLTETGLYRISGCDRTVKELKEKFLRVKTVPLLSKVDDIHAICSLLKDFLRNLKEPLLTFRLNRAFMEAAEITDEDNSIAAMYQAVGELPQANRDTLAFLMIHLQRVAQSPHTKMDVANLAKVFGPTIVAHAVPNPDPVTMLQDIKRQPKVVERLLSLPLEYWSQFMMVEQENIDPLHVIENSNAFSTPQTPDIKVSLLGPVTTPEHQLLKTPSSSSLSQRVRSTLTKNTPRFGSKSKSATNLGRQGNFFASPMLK

## COc1ccc(-n2nc(C(=O)NCC(=O)N3CCN(c4ccc(F)cc4)CC3)c3ccccc3c2=O)c(OC)c1
[1]
  EC50: > 150 µM (inactive)
[2]
  EC50: 0.642 µM (active)
[3]
  EC50: > 180 µM (inactive)
[4]
  EC50: > 150 µM (inactive)

## CC(C)(C)c1nc2ccccc2c2nnc(SCC(=O)Nc3nc4ccccc4s3)n12
[5]
  IC50: 3.79 µM (active)
[6]
  IC50: > 100 µM (inactive)
Prothrombin [7]
  IC50: > 100 µM (inactive)

## Cc1nn(C)c(C)c1S(=O)(=O)N1CCC(C(=O)NCCC2=CCCCC2)CC1
Prothrombin [8]
  IC50: > 50 µM (not active)
Coagulation factor XII
  IC50: > 50 µM (inactive)

## CCN(CC)CCN(C(=O)c1ccc2ncsc2c1)c1nc2cc3c(cc2s1)OCO3
[9]
  AC50: 51.9 µM (active)

## Cc1ccc2[nH]c(/C(C#N)=C\c3ccc(OC(=O)c4cccs4)cc3)nc2c1
[1]
  EC50: 17.2 µM (inconclusive)
[2]
  EC50: 5.29 µM (active)
[3]
  EC50: > 180 µM (inactive)
[4]
  EC50: 23.3 µM (active)
Cytochrome P450 2D6
  AC50: 3.55 µM (inconclusive)
Cytochrome P450 3A4
  AC50: 14.1 µM (inconclusive)

## O=C(c1cc2ccccc2cc1O)N1CCN(c2ccccc2O)CC1
[1]
  EC50: > 150 µM (inactive)
[10]
  EC50: 24.3 µM (active)
Streptokinase A
  EC50: > 150 µM (not active)
[2]
  EC50: 0.274 µM (active)
[3]
  EC50: > 180 µM (inactive)
Streptococcus
  EC50: 110 µM (active)
[4]
  EC50: > 150 µM (inactive)

## Cn1c(=O)oc2cc(S(=O)(=O)N3CCN(c4ccccc4F)CC3)ccc21
[5]
  IC50: 20.7 µM (active)
[6]
  IC50: > 100 µM (inactive)
Prothrombin [7]
  IC50: 52.9 µM (active)

## O=c1oc(-c2ccco2)nc2c1cnn2-c1ccccc1
Coagulation factor XII
  IC50: 18.2 µM (active)
H9c2
  IC50: > 79 µM (inactive)

## O=C(CC1CCCC1)NNC(=O)c1ccccc1O
Vero
  CC50: > 25 µM (active)

## CCN(CC)CC[n+]1ccc2c(C)c3[nH]c4ccccc4c3c(C)c2c1
P388/ADR
  GI50: 29.9 µM (inactive)
SN12K1
  GI50: 0.137 µM (active)

## COc1ccc(NC(=O)c2cccc3c(-c4cccnc4)coc23)cc1
[5]
  IC50: 15.2 µM (active)
[6]
  IC50: > 100 µM (inactive)
Prothrombin [7]
  IC50: > 100 µM (inactive)

## CCN(CC)S(=O)(=O)c1ccc(N/N=C/c2ccc(O)cc2O)nc1
[1]
  EC50: 38.5 µM (active)
Cells [11]
  EC50: 4.61 µM (active)
[2]
  EC50: 0.945 µM (active)
Cells [12]
  EC50: > 350 µM (not active)
[3]
  EC50: > 180 µM (inactive)
Nonstructural protein 1
  IC50: 12.1 µM (active)
HEK293
  AC50: 5.04 µM (active)
[4]
  EC50: > 160 µM (inactive)
[13]
  IC50: 24.3 µM (active)
